What all share (test): drug sensitivity score (DSS) from 5-dose viability curve (DSS (area-based score, 0 = no response)); higher = more sensitive (stronger viability inhibition); extreme values may be limits of the assay
Test [1] relates to MDCK p60AmotL2-inducible + doxycycline (p60AmotL2 expressing). Conditions: doxycycline: 10 ng/mL; 72 h. Put shortly: (§1)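 Two MDCK lines, parental and doxycycline-inducible, received doxycycline at 10 ng/mL in the medium before being plated at 2000 cells/well onto a pre-spotted 384-well oncology library of 528 drugs at five doses (1-10,000 nM). Incubation lasted 72 h at 37 °C. Viability was read by CellTiter-Glo luminescence, scaled per plate between vehicle and positive controls, and converted to drug sensitivity scores through Breeze curve fitting.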

The subject of test [2] is MDCK wild-type + doxycycline. Conditions: doxycycline: 10 ng/mL; 72 h. Put shortly: as §1
In test [3] the test system is MDCK wild-type - doxycycline. Conditions: doxycycline: none; 72 h. Put shortly:
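Drug sensitivity scores came from Breeze pipeline dose-response fits of CellTiter-Glo luminescence, scaled per plate between vehicle and positive controls. The assay used parental MDCK cells without doxycycline at 2000 cells/well, exposed for 72 h to 528 oncology drugs at five doses (1-10,000 nM).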

As for `CCOc1ccccc1-n1c(C(C)N2CCN(C(=O)COc3ccc(Cl)cc3)CC2)nc2ccccc2c1=O` (stereo unspecified) [Erastin], the drug sensitivity score in test [1], in test [2] and in test [3] was 0 in each case.
`C=CC(=O)Nc1cc(Nc2nccc(-c3cn(C)c4ccccc34)n2)c(OC)cc1N(C)CCN(C)C` [Osimertinib]: the drug sensitivity score in test [1] stood at 10.9; in test [2] it was 6.4; in test [3], 4.6.
Turning to `CC[C@@](C)(Nc1ccnc(-c2c[nH]c3ncccc23)n1)C(=O)NCC(F)(F)F` [Decernotinib], the drug sensitivity score in test [1], in test [2] and in test [3] was 0 in each case.
Take `CC[C@]1(O)C[C@@H]2CN(CCc3c([nH]c4ccccc34)[C@@](C(=O)OC)(c3cc4c(cc3OC)N(C)[C@H]3[C@@](O)(C(=O)OC)[C@H](OC(C)=O)[C@]5(CC)C=CCN6CC[C@]43[C@@H]65)C2)C1` [Vinblastine]: the drug sensitivity score in test [1] worked out at 25.2; in test [2], 24; in test [3] it was 25.6.
Regarding `CCn1c(C(=O)N(C2CC2)C2CC2)cc2c3c(ncn3C)c(Nc3cc(C)n(C)n3)nc21`, the drug sensitivity score in test [1], in test [2] and in test [3] was 0 throughout.
Turning to `Cn1ncc(Cl)c1-c1cc(C(=O)N[C@H](CN)Cc2ccc(F)c(F)c2)oc1Cl` [Uprosertib], the drug sensitivity score in test [1], in test [2] and in test [3] was 0 each time.
With `CCCCCCCCCCCCCCCCCCOP(=O)([O-])OC1CC[N+](C)(C)CC1` [Perifosine], the drug sensitivity score in test [1], in test [2] and in test [3] was 0 each time.
For the compound `CC(C)N(CCCNC(=O)Nc1ccc(C(C)(C)C)cc1)C[C@H]1O[C@@H](n2cc(Br)c3c(N)ncnc32)[C@H](O)[C@@H]1O` [SGC0946], the drug sensitivity score in test [1], in test [2] and in test [3] was 0 in each case.
Take `CCCCC(=O)OCC(=O)[C@]1(O)Cc2c(O)c3c(c(O)c2[C@@H](O[C@H]2C[C@H](NC(=O)C(F)(F)F)[C@H](O)[C@H](C)O2)C1)C(=O)c1c(OC)cccc1C3=O` [Valrubicin]: the results for the drug sensitivity score in test [1], in test [2] and in test [3] were 12.9, 8.8 and 5.7, respectively.
On to `CCN(CC)CCOc1ccc(C(=C(Cl)c2ccccc2)c2ccccc2)cc1` [Clomifene], for which the drug sensitivity score was 5.3 in test [1], 4.7 in test [2] and 4.4 in test [3].
The corresponding values for `Cc1nc(-c2cn3c(n2)-c2ccc(-c4cnn(C(C)(C)C(N)=O)c4)cc2OCC3)n(C(C)C)n1` [Taselisib] are 6.3, 0.3 and 0.
In the case of `O=C(O)CC[C@H]1CC[C@@](c2cc(F)ccc2F)(S(=O)(=O)c2ccc(Cl)cc2)CC1` [MK-0752], the drug sensitivity score in test [1], in test [2] and in test [3] was 0 throughout.
On to `CC(=O)OC[C@H]1O[C@@H]([S-])[C@H](OC(C)=O)[C@@H](OC(C)=O)[C@@H]1OC(C)=O.CCP(CC)CC.[Au+]` [Auranofin], for which the drug sensitivity score came out at 4.7 in test [1], 4.2 in test [2] and 4.2 in test [3].
In the case of `CCc1cncnc1N1CCN(Cc2nc3ccc(C(F)(F)F)cc3[nH]2)CC1`, the drug sensitivity score in test [1], in test [2] and in test [3] was 0 throughout.
`Nc1cccc2c1C(=O)N(C1CCC(=O)NC1=O)C2=O` (stereo unspecified) [Pomalidomide]: the drug sensitivity score in test [1], in test [2] and in test [3] was 0 each time.
As for `CCN(CC)Cc1ccc2cc(COC(=O)Nc3ccc(C(=O)NO)cc3)ccc2c1` [Givinostat], the drug sensitivity score in test [1] was found to be 7.1; in test [2], 4.5; in test [3] it was 4.8.
On to `O=C(O)c1ccc2c(c1)nc(Nc1cccc(Cl)c1)c1ccncc12` [Silmitasertib], for which the drug sensitivity score in test [1] is 1.6; in test [2], 1.4; in test [3] it was 0.
The corresponding values for `CNC(=O)c1cccc2cc(Oc3ccnc4cc(OCC5(N)CC5)c(OC)cc34)ccc12` [Lucitanib] are 2.6, 0.7 and 0.
Consider `C[C@H](Nc1ncnc2nc[nH]c12)c1cc2cccc(Cl)c2c(=O)n1-c1ccccc1` [Duvelisib], for which the drug sensitivity score in test [1], in test [2] and in test [3] was 0 in each case.
As to `Cc1ncc(Cl)cc1NCc1ccc(C(=O)N[C@@H](CC2CCCC2)C(=O)NC2CC2)s1`, the drug sensitivity score in test [1], in test [2] and in test [3] was 0 throughout.
`CO[C@H]1CC[C@H](N2C(=O)CNc3ncc(-c4ccc(C(C)(C)O)nc4)nc32)CC1` [CC-223]: the drug sensitivity score in test [1] stood at 5.2; in test [2], 2.9; in test [3], 2.8.
The corresponding values for `CC(=O)[C@]1(O)Cc2c(O)c3c(c(O)c2[C@@H](O[C@H]2C[C@H](N)[C@H](O)[C@H](C)O2)C1)C(=O)c1ccccc1C3=O` [Idarubicin] are 19, 13.9 and 16.6.
The corresponding values for `CC(C)c1c(C(=O)Nc2ccccc2)c(-c2ccccc2)c(-c2ccc(F)cc2)n1CC[C@@H](O)C[C@@H](O)CC(=O)O` [Atorvastatin] are 0.4, 0 and 0.
For the compound `C=CCc1cccc(/C=N/NC(=O)CN2CCN(Cc3ccccc3)CC2)c1O` [PAC-1], the drug sensitivity score turned out to be 4 in test [1], 4.2 in test [2] and 2.6 in test [3].
For the compound `c1cn2cc(-c3ccc4cn[nH]c4c3)nc(Nc3ccc(N4CCOCC4)cc3)c2n1` [Entospletinib], the drug sensitivity score in test [1], in test [2] and in test [3] was 0 each time.
For the compound `CC(=O)Nc1ccc(C(=O)Nc2ccccc2N)cc1` [Tacedinaline], the drug sensitivity score in test [1], in test [2] and in test [3] was 0 each time.
In the case of `NCCNc1ccc(NCCN)c2c1C(=O)c1ccncc1C2=O` [Pixantrone], the drug sensitivity score in test [1], in test [2] and in test [3] was 0 each time.
Take `COCCNCc1ccc(-c2cc3nccc(Oc4ccc(NC(=O)C5(C(=O)Nc6ccc(F)cc6)CC5)cc4F)c3s2)nc1` [Sitravatinib]: the drug sensitivity score in test [1] is 1.7; in test [2], 1.2; in test [3], 0.
The corresponding values for `CCn1c(-c2nonc2N)nc2cnc(Oc3cccc(NC(=O)c4ccc(OCCN5CCOCC5)cc4)c3)cc21` are 4, 2.6 and 0.8.
The corresponding values for `O=C1CCc2c(Oc3ccc4c(c3)[C@@H]3[C@H](O4)[C@H]3c3nc4cc(C(F)(F)F)ccc4[nH]3)ccnc2N1` [BGB-283] are 6.6, 5.4 and 1.6.
The corresponding values for `COc1cc(OC2CCN(C)CC2)ccc1Nc1ncc2c(n1)n(C1CCCC1)c(=O)n2C` [AZ 3146] are 6.3, 5.1 and 5.1.
As to `CNC(=O)c1ccc(-c2cnc3ncc(Cc4ccc5ncccc5c4)n3n2)cc1F` [Capmatinib], the drug sensitivity score in test [1], in test [2] and in test [3] was 0 each time.
As to `C/C=C1\NC(=O)[C@H]2CSSCC/C=C/[C@H](CC(=O)N[C@H](C(C)C)C(=O)N2)OC(=O)[C@H](C(C)C)NC1=O` [Romidepsin], the drug sensitivity score in test [1] was found to be 24.9; in test [2] it was 19.7; in test [3], 18.1.
The corresponding values for `COc1cc(Nc2ncc3c(n2)-c2ccc(Cl)cc2C(c2c(F)cccc2OC)=NC3)ccc1C(=O)O` [Alisertib] are 10.6, 0 and 0.
The corresponding values for `C=CC[C@@H]1/C=C(\C)C[C@H](C)C[C@H](OC)[C@H]2O[C@@](O)(C(=O)C(=O)N3CCCC[C@H]3C(=O)O[C@H](/C(C)=C/[C@@H]3CC[C@@H](O)[C@H](OC)C3)[C@H](C)[C@@H](O)CC1=O)[C@H](C)C[C@@H]2OC` [Tacrolimus] are 0, 0 and 0.
In the same order, the values of `C[C@@H]1COC(Nc2ccc3ncnc(Nc4ccc(OCc5nccs5)c(Cl)c4)c3c2)=N1` [Varlitinib] are 7.2, 3.6 and 1.6.
Consider `CNC(=O)c1ccccc1Nc1nc(Nc2ccc3c(c2OC)CCC[C@H](N2CCN(CCO)CC2)C3)ncc1Cl`, for which the drug sensitivity score in test [1] came to 8.8; in test [2] it was 6.2; in test [3], 6.8.

These data come from the supplement of paper PMC11003180.
